The results in this text go back to patent US10329295B2, “Pyrrolotriazine inhibitors of IRAK4 activity” (MERCK SHARP & DOHME CORP., priority 2015, dated 2019).

Structures are written as SMILES. Counter-ions that a name gives are not always drawn.

The target of this assay is GST tagged IRAK4 (Homo sapiens (Human), UniProt Q9NWZ3). Description: IRAK4 Kinase Assay (IMAP fluorescence polarization). The format is biochemical. To be noted: 0.5 nM GST tagged IRAK4, 100 μM ATP, 30 minutes at 25° C. The protocol: The kinase activity of IRAK4 is determined by its ability to catalyze the phosphorylation of a fluorescent polypeptide substrate. The extent of phosphorylation is measured using the IMAP technology (Molecular Devices) where the phosphorylated fluorescent substrate binds to the large M(III)-based nanoparticles which reduces the rotational speed of the substrate and thus increases its fluorescent polarization (FP).
Sequence of GST tagged IRAK4 (Q9NWZ3 whole entry): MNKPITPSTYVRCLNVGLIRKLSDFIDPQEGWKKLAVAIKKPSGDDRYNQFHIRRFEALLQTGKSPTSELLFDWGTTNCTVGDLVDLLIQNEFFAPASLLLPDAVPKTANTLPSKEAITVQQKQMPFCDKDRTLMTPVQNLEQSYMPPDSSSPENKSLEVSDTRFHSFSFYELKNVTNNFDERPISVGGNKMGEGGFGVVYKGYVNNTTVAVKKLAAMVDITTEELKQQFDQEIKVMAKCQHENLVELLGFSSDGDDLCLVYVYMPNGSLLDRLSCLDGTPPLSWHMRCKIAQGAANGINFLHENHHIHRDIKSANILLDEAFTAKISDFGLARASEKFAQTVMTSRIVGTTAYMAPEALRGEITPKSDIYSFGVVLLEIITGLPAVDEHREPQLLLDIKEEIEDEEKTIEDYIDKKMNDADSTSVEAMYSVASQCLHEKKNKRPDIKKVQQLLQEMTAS
20 μL reaction mixture contains 10 mM TriHCl, pH 7.2, 0.5 nM GST tagged IRAK4 (SignalChem), 100 nM fluorescent peptide substrate (RP7030, Molecular Devices), 100 μM ATP, 1 mM DDT, 1 mM MgCl2, and 0.01% Tween 20. The reaction is initiated by the addition of ATP. After incubation for 30 minutes at 25° C., 60 μL of Progressive IMAP Reagent (Molecular Devices) is added to stop the reaction. Change in RP7030's FP is determined by a FP reader (Analyst HT, LJL BioSystems).
In general terms: Fluorescence polarisation rises when a labelled molecule tumbles more slowly, as on binding a larger partner.
The term IC50 denotes the midpoint of a concentration-inhibition curve. Higher therefore signals a need for much substance. `N[C@H]1CCCC[C@H]1Nc1ncc2ccc(C(=O)Nc3ccccc3C(F)(F)F)n2n1` [Example 27, 2-{[(1R,2S)-2-aminocyclohexyl]amino}-N-[2-(trifluoromethyl)phenyl]-pyrrolo[2,1-f][1,2,4]triazine-7-carboxamide trifluoroacetate] came in with a half-inhibitory concentration (IC50) of 392 nM.

As for `N#Cc1ccccc1NC(=O)c1ccc2cnc(N[C@@H]3CCCNC3)nn12` [Example 52, N-(2-cyanophenyl)-2-[(3R)-piperidin-3-ylamino]pyrrolo[2,1-f][1,2,4]triazine-7-carboxamide trifluoroacetate], the IC50 is 26 nM.

As to `N#Cc1sccc1NC(=O)c1ccc2cnc(N[C@@H]3CCCC(F)(F)[C@@H]3N)nn12` [Example 158, 2-{[(1R,2R)-2-amino-3,3-difluorocyclohexyl]amino}-N-(2-cyanothiophen-3-yl)pyrrolo[2,1-f][1,2,4]triazine-7-carboxamide formate], half-maximal inhibition (IC50) required 1040 nM.

`Cn1cc(NC(=O)c2ccc3cnc(N4CCNCC4)nn23)c(C(F)(F)F)n1` [Example 4, N-[1-methyl-3-(trifluoromethyl)-1H-pyrazol-4-yl]-2-piperazin-1-ylpyrrolo[2,1-f][1,2,4]triazine-7-carboxamide trifluoroacetate] yielded an IC50 of 73 nM.

Molecule `N#Cc1ccccc1NC(=O)c1ccc2cnc(N3C[C@@H]4CC[C@H]3CN4)nn12` (single isomer, unassigned) [Example 74, N-(2-cyanophenyl)-2-[(1S,4S)- or (1R,4R)-2,5-diazabicyclo[2.2.2]oct-2-yl]pyrrolo[2,1-f][1,2,4]triazine-7-carboxamide trifluoroacetate] gave a half-inhibitory concentration (IC50) of 850 nM.

Molecule `Cn1cc(NC(=O)c2ccc3cnc(N[C@@H]4CCC(F)(F)C[C@@H]4N)nn23)c(C(F)(F)F)n1` (single isomer, unassigned) [Example 132, 2-{[(1S,2R)- or (1R,2S)-2-amino-4,4-difluorocyclohexyl]amino}-N-[1-methyl-3-(trifluoromethyl)-1H-pyrazol-4-yl]pyrrolo[2,1-f][1,2,4]triazine-7-carboxamide trifluoroacetate] yielded an IC50 of 655 nM.

`Cn1cc(NC(=O)c2ccc3cnc(N[C@@H]4CCCC[C@@H]4O)nn23)c(C(F)F)n1` [Example 17, N-[3-(difluoromethyl)-1-methyl-1H-pyrazol-4-yl]-2-{[(1R,2S)-2-hydroxycyclohexyl]amino}-pyrrolo[2,1-f][1,2,4]triazine-7-carboxamide trifluoroacetate] returned an IC50 of 4 nM.

Turning to `N#Cc1cscc1NC(=O)c1ccc2cnc(N[C@@H]3CCCC[C@@H]3O)nn12` [Example 142, N-(4-cyanothiophen-3-yl)-2-{[(1R,2S)-2-hydroxycyclohexyl]amino}-pyrrolo[2,1-f][1,2,4]triazine-7-carboxamide trifluoroacetate], the IC50 is 1590 nM.

The molecule `N#Cc1ccccc1NC(=O)c1ccc2cnc(N3CCC[C@@H](N)C3)nn12` [Example 51, 2-[(3R)-3-aminopiperidin-1-yl]-N-(2-cyanophenyl)pyrrolo[2,1-f][1,2,4]triazine-7-carboxamide trifluoroacetate] had an IC50 of 157 nM.

Molecule `N#Cc1ccccc1NC(=O)c1ccc2cnc(N3C[C@H]4CC[C@@H]3CN4)nn12` (single isomer, unassigned) [Example 75, N-(2-cyanophenyl)-2-[(1S,4S)- or (1R,4R)-2,5-diazabicyclo[2.2.2]oct-2-yl]pyrrolo[2,1-f][1,2,4]triazine-7-carboxamide trifluoroacetate] had an IC50 of 4000 nM.

`N#Cc1ccccc1NC(=O)c1ccc2cnc(N3CCCNCC3)nn12` [Example 59, N-(2-cyanophenyl)-2-(1,4-diazepan-1-yl)pyrrolo[2,1-f][1,2,4]triazine-7-carboxamide trifluoroacetate] yielded an IC50 of 4270 nM.

The molecule `O=C(Nc1cscc1Br)c1ccc2cnc(N3CC4CCC3CN4)nn12` (centres unmarked) [Example 24, N-(4-bromothiophen-3-yl)-2-(2,5-diazabicyclo[2.2.2]oct-2-yl)pyrrolo[2,1-f][1,2,4]triazine-7-carboxamide trifluoroacetate] yielded an IC50 of 680 nM.

Turning to `N[C@@H]1[C@H](Nc2ncc3ccc(C(=O)Nc4ccccc4C(F)(F)F)n3n2)CCCC1(F)F` [Example 137, 2-{[(1R,2R)-2-amino-3,3-difluorocyclohexyl]amino}-N-[2-(trifluoromethyl)phenyl]-pyrrolo[2,1-f][1,2,4]triazine-7-carboxamide trifluoroacetate], 2190 nM corresponded to half-maximal inhibition (IC50).

In turn, `Cn1cc(NC(=O)c2ccc3cnc(N[C@@H]4CC(F)(F)CC[C@@H]4N)nn23)c(C(F)(F)F)n1` (single isomer, unassigned) [Example 131, 2-{[(1S,2R)- or (1R,2S)-2-amino-5,5-difluorocyclohexyl]amino}-N-[1-methyl-3-(trifluoromethyl)-1H-pyrazol-4-yl]pyrrolo[2,1-f][1,2,4]triazine-7-carboxamide trifluoroacetate] yielded an IC50 of 4 nM.

Turning to `Cn1cc(NC(=O)c2ccc3cnc(N4C[C@H]5CC[C@@H]4CN5)nn23)c(C(F)(F)F)n1` (single isomer, unassigned) [Example 171, 2-[(1S,4S)- or (1R,4R)-2,5-diazabicyclo[2.2.2]oct-2-yl]-N-[1-methyl-3-(trifluoromethyl)-1H-pyrazol-4-yl]pyrrolo[2,1-f][1,2,4]triazine-7-carboxamide], the concentration for half-maximal inhibition (IC50) stood at 64 nM.

In the case of `Cn1ncc(NC(=O)c2ccc3cnc(N[C@@H]4CCCC[C@@H]4N)nn23)c1C(F)(F)F` [Example 70, 2-{[(1R,2S)-2-aminocyclohexyl]amino}-N-[1-methyl-5-(trifluoromethyl)-1H-pyrazol-4-yl]pyrrolo[2,1-f][1,2,4]triazine-7-carboxamide trifluoroacetate], 26 nM corresponded to half-maximal inhibition (IC50).

As to `N#Cc1sccc1NC(=O)c1ccc2cnc(N[C@@H]3CCCC[C@@H]3O)nn12` [Example 147, N-(2-cyanothiophen-3-yl)-2-{[(1R,2S)-2-hydroxycyclohexyl]amino}-pyrrolo[2,1-f][1,2,4]triazine-7-carboxamide], the midpoint of inhibition, the IC50, lay at 396 nM.

Molecule `Cn1cc(NC(=O)c2ccc3cnc(N4CCCNCC4)nn23)c(C(F)F)n1` [Example 15, 2-(1,4-diazepan-1-yl)-N-[3-(difluoromethyl)-1-methyl-1H-pyrazol-4-yl]pyrrolo[2,1-f][1,2,4]triazine-7-carboxamide trifluoroacetate] yielded an IC50 of 6 nM.

As to `Cn1cc(NC(=O)c2ccc3cnc(N4CCC[C@H](N)C4)nn23)c(C#N)n1` [Example 123, 2-[(3S)-3-aminopiperidin-1-yl]-N-(3-cyano-1-methyl-1H-pyrazol-4-yl)pyrrolo[2,1-f][1,2,4]triazine-7-carboxamide trifluoroacetate], the 50% inhibitory concentration (IC50) was found to be 1 nM.

For `Cn1cc(NC(=O)c2ccc3cnc(N[C@H]4CCC(F)(F)C[C@H]4N)nn23)c(C(F)F)n1` (single isomer, unassigned) [Example 129, 2-{[(1S,2R)- or (1R,2S)-2-amino-4,4-difluorocyclohexyl]amino}-N-[3-(difluoromethyl)-1-methyl-1H-pyrazol-4-yl]pyrrolo[2,1-f][1,2,4]triazine-7-carboxamide], half-maximal inhibition (IC50) was put at 3650 nM.

As to `Cn1cc(NC(=O)c2ccc3cnc(N4CCC[C@@H](N)C4)nn23)c(C(F)(F)F)n1` [Example 7, 2-[(3R)-3-aminopiperidin-1-yl]-N-[1-methyl-3-(trifluoromethyl)-1H-pyrazol-4-yl]pyrrolo[2,1-f][1,2,4]triazine-7-carboxamide trifluoroacetate], the midpoint of inhibition, the IC50, lay at 0.9 nM.

Consider `O=C(Nc1ccsc1Br)c1ccc2cnc(N3C[C@@H]4CC[C@H]3CN4)nn12` (single isomer, unassigned) [Example 48, N-(2-bromothiophen-3-yl)-2-[(1S,4S)- or (1R,4R)-2,5-diazabicyclo[2.2.2]oct-2-yl]pyrrolo[2,1-f][1,2,4]triazine-7-carboxamide trifluoroacetate], for which the 50% inhibitory concentration (IC50) stood at 1650 nM.

For the molecule `Cn1cc(NC(=O)c2ccc3cnc(N[C@@H]4CCC(F)(F)C[C@@H]4N)nn23)c(C(F)F)n1` (single isomer, unassigned) [Example 139, 2-{[(1S,2R)- or (1R,2S)-2-amino-4,4-difluorocyclohexyl]amino}-N-[3-(difluoromethyl)-1-methyl-1H-pyrazol-4-yl]pyrrolo[2,1-f][1,2,4]triazine-7-carboxamide], the half-maximal inhibitory concentration (IC50) came out at 3 nM.

In the case of `O=C(Nc1ccccc1C(F)F)c1ccc2cnc(N3C[C@@H]4CC[C@H]3CN4)nn12` (single isomer, unassigned) [Example 61, 2-[(1S,4S)- or (1R,4R)-2,5-diazabicyclo[2.2.2]oct-2-yl]-N-[2-(difluoromethyl)phenyl]-pyrrolo[2,1-f][1,2,4]triazine-7-carboxamide trifluoroacetate], half-maximal inhibition (IC50) was put at 10000 nM.

Take `N#Cc1sccc1NC(=O)c1ccc2cnc(N[C@@H]3CCCC[C@@H]3N)nn12` [Example 21, 2-{[(1R,2S)-2-aminocyclohexyl]amino}-N-(2-cyanothiophen-3-yl)pyrrolo[2,1-f][1,2,4]triazine-7-carboxamide trifluoroacetate]: the IC50 amounted to 1 nM.

In turn, `Cn1cc(NC(=O)c2ccc3cnc(N[C@@H]4CCCCNC4)nn23)c(C(F)F)n1` (single isomer, unassigned) [Example 90, 2-[(3S)- or (3R)-azepan-3-ylamino]-N-[3-(difluoromethyl)-1-methyl-1H-pyrazol-4-yl]pyrrolo[2,1-f][1,2,4]triazine-7-carboxamide trifluoroacetate] returned a 50% inhibitory concentration (IC50) of 0.7 nM.
